Test results from EP4711367A1, “PYRAZOLOPYRAZINE COMPOUND AND METHOD FOR PREPARING CRYSTAL FORM THEREOF” (CMS Research & Development Pte. Ltd., priority 2023, dated 2024).

Assay: Pharmacokinetic (PK) test in mice
Assay type: in vivo, male mice (balb/c)
Method: The clarified solutions obtained by dissolving the test compound were administered to male mice (balb/c) via tail vein injection and oral gavage, respectively. After administration of the test compound, blood was collected from the mandibular vein at 0.083, 0.25, 0.5, 1, 2, 4, 8, and 24 hours for the intravenous injection group (1 mg/kg) and at 0.25, 0.5, 1, 2, 4, 6, 8, and 24 hours for the oral gavage group (3 mg/kg), followed by centrifugation to obtain plasma. Plasma concentrations were determined by the LC-MS/MS method, and relevant pharmacokinetic parameters were calculated using WinNonlin™ Version 6.3 pharmacokinetic software with non-compartmental model linear-log trapezoidal method. PK test results of the compound of formula (I) in mice

Cn1cc(-c2cn3nccc3c(-c3cnn([C@]4(CC#N)CC5(C[C@H](C#N)C5)C4)c3)n2)cn1 (some centres unmarked) [Compound of formula (I)]
exposure (in words): high exposure | oral bioavailability (in words): good oral bioavailability
